Laboratory results from PubChem BioAssay (NCI).
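Grown in 96-well plates, cells were treated for 48 hours with each compound at five concentrations. Insufficient inhibition: endpoint recorded as highest concentration tested. TGI is the concentration that stops growth completely.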

Tests used:
Test in all cases: NCI tumour cell line growth inhibition, 48 h
HCC-2998 colon = system: HCC-2998 colon
HOP-92 NSCLC = system: HOP-92 NSCLC
IGROV1 ovarian = system: IGROV1 ovarian
K-562 leukemia = system: K-562 leukemia
KM12 colon = system: KM12 colon
MCF7 breast = system: MCF7 breast
MDA-MB-435 = system: MDA-MB-435
RPMI-8226 leukemia = system: RPMI-8226 leukemia
SNB-19 CNS = system: SNB-19 CNS
UO-31 renal = system: UO-31 renal

| Compound | TGI (HCC-2998 colon) | TGI (HOP-92 NSCLC) | TGI (IGROV1 ovarian) | TGI (K-562 leukemia) | TGI (KM12 colon) | TGI (MCF7 breast) | TGI (MDA-MB-435) | TGI (RPMI-8226 leukemia) | TGI (SNB-19 CNS) | TGI (UO-31 renal) |
| --- | --- | --- | --- | --- | --- | --- | --- | --- | --- | --- |
| Nc1nc(N)c2nc(CN(C=O)c3ccc(C(=O)O)cc3)cnc2n1 | > 100 µM | > 100 µM | > 100 µM | > 100 µM | > 100 µM | > 100 µM | > 100 µM | > 100 µM | > 100 µM | > 100 µM |
| Cc1ccc(C(=O)N/N=C(\N=Nc2ccc([N+](=O)[O-])cc2)c2ccc(N(CCC#N)CCC#N)cc2C)cc1 | > 100 µM | > 100 µM | > 100 µM | > 100 µM | > 100 µM | > 100 µM | > 100 µM | > 100 µM | > 100 µM | > 100 µM |
| CC1(C)N=C(C(N)=O)c2[nH]cnc2N1 | > 100 µM | > 100 µM | > 100 µM | > 100 µM | > 100 µM | > 100 µM | > 100 µM | > 100 µM | > 100 µM |  |
| O=C1NC(N2CCCC(CO)C2)=N/C1=C\c1cccs1 (stereo not given) | > 100 µM | > 100 µM | > 100 µM | > 100 µM | > 100 µM | > 100 µM | > 100 µM | > 100 µM | > 100 µM | > 100 µM |
| Cc1ccc(/C=c2\cc3oc(=O)c4cccc(c4-3)c2=O)cc1 | > 100 µM | > 100 µM | > 100 µM | > 100 µM |  | > 100 µM | > 100 µM | > 100 µM | > 100 µM | > 100 µM |
| C=CCOCC1C2CCC3(OCCO3)C21 (stereo not given) | > 100 µM | > 100 µM | > 100 µM | > 100 µM | > 100 µM | > 100 µM | > 100 µM | > 100 µM | > 100 µM | 75.2 µM |
| CCOC(=O)C(O)(CC1=NC(C(=O)OC)(C(=O)OC)C(c2cccc(C=O)c2)O1)C(=O)OCC (stereo not given) | > 100 µM | > 100 µM | > 100 µM | > 100 µM | > 100 µM | > 100 µM | > 100 µM | > 100 µM | > 100 µM | > 100 µM |
| CCCOC(=O)c1cc(O)c(O)c(O)c1 | > 100 µM | > 100 µM | > 100 µM | > 100 µM | > 100 µM | > 100 µM | 81.1 µM | > 100 µM | > 100 µM | > 100 µM |
| CC(=O)OC1CCn2c1nc1cc([N+](=O)[O-])c(C)cc12 (stereo not given) | > 100 µM | > 100 µM | > 100 µM | > 100 µM | > 100 µM | > 100 µM | > 100 µM | > 100 µM | > 100 µM | > 100 µM |
| O=c1c(-c2nc3ccccc3c3ccccc3c2=O)nc2ccccc2c2ccccc12 | 68 µM | > 100 µM | > 100 µM | > 100 µM | > 100 µM | > 100 µM | 89 µM | > 100 µM | > 100 µM | > 100 µM |
| CCOP1(=O)CC(C)=C(Cl)C(OC)C1 (stereo not given) | > 100 µM | > 100 µM | > 100 µM | 77.3 µM | > 100 µM | > 100 µM | > 100 µM | > 100 µM | > 100 µM |  |
| COc1cc(/C=C(\C)[N+](=O)[O-])cc(OC)c1 | 55.5 µM | 28.2 µM | 17.6 µM | 5.52 µM | 36.8 µM | 21.1 µM | 28.3 µM | 9.04 µM | > 56.2 µM | 29.1 µM |
| Nc1cccc(-c2cc(=O)c3cc4c(cc3[nH]2)OCO4)c1 | 26.5 µM | > 100 µM |  | > 100 µM | > 21.6 µM | > 100 µM | 0.415 µM | > 100 µM | > 48.5 µM | > 75.9 µM |
| S=c1ncc(-c2cncc(-c3cnc(=S)[nH]c3)n2)c[nH]1 | > 100 µM | > 100 µM | > 100 µM | > 100 µM | > 100 µM | > 100 µM | > 100 µM | > 100 µM | > 100 µM | > 100 µM |
| Cc1cccc2c(=O)c3c(O)cc(O)cc3n(C)c12 | > 100 µM | > 100 µM | > 100 µM | > 100 µM | > 100 µM | > 100 µM | > 100 µM | > 100 µM | > 100 µM |  |
| NCCCN(CCCCN(CCCN)CCCc1ccccc1)CCCc1ccccc1 | 2.99 µM | 24.1 µM | 8.88 µM | 3.57 µM | 6.43 µM | 3.56 µM | 3.27 µM | 6.15 µM | 6.62 µM | 5.66 µM |
